Source: paper PMC6609550, “Blockade of the forward Na^+/Ca^2+ exchanger suppresses the growth of glioblastoma cells through Ca^2+‐mediated cell death” (British Journal of Pharmacology, 2019)

Assays:
[1] = LC-MS analysis of brain homogenate after oral bepridil; type: in vivo, athymic BALB/c nude mice; details: 50 mg·kg^−1 p.o., brain homogenate collected at 2 hr
Method: Athymic BALB/c nude mice were administered bepridil by oral gavage at doses of 50 mg·kg^−1 as described above. Two hours later, mice were killed, and the brain sample was homogenized using the tissue homogenizers (Bertin Instruments, Paris, France) in ice‐cold deionized water at a concentration of 3 ml·g^−1 tissue. Then, methanol with 0.1% formic acid was added to the brain homogenate in a 4:1 proportion (vol/vol) and centrifuged at 18,188× g and 4°C for 10 min to precipitate protein. The supernatant was transferred to a vial to be injected directly into the LC‐MS. The chromatographic system consisted of Shimadzu quaternary pump, vacuum degasser, and autosampler (Shimadzu, LC‐20ADXR, Tokyo, Japan) coupled to https://sciex.com/products/mass-spectrometers/triple-quad-systems, API‐4000 mass spectrometer (SCIEX, Redwood City, CA, USA). HPLC separation was performed on a Thermo Syncronis C8 column 100 × 2.1 mm, 5.0 μm. The mobile phase consisted of methanol (A) and water with 0.1% formic acid (B), measure time was 9 min per run. A flow rate of 0.3 ml·min^−1 was used using a gradient elution of 70% B at 1 min and 5–70% B between 1 and 5 min and maintained for 2 min at 5% B and back to 70% B at 7–7.1 min. […] The CE for bepridil was optimized to 30 V. The precursor‐to‐product ions (Q1 → Q3) selected for bepridil during quantitative optimization were (m/z) 367.1 → 84.3/184.3.

[2] = tested on: U87‐Luc xenografts; assay: U87-luciferase intracranial xenograft, in vivo bioluminescent imaging; set-up: species or system athymic BALB/c nude mice; details: 50 mg·kg^−1 p.o. once a day for 14 days, from 16 days after implantation; n = 5 mice per group
Method: The athymic BALB/c nude mice were anaesthetized by subjecting them to 3% isoflurane (RWD Life Science, Shenzhen, China) in a mixture of 30% O2 and 70% N2O. […] The mouse head was maintained within a stereotactic frame (RWD Life Science), allowing a precise and reproducible injection. The coordinate of the injection site was 0.5 mm anterior and 2.5 mm right from the bregma and at a depth of 3 mm. U87-Luc cells (COBIOER) were assessed by the trypan blue exclusion assay. Only cell suspensions with greater than 95% viability were used and implanted into the right striatum of nude mice. U87-Luc cells (5 × 10^5 in 5-μl PBS) were inoculated into the right striatum of each mouse at a controlled flow rate of 0.5 μl·min^-1, and the total injection volume was about 5 μl. […] Tumours were measured by bioluminescence using an IVIS Spectrum CT Imaging System (PerkinElmer, Waltham, MA, USA), which captured the luminescence signal emitted from the engrafted tumour. […] Signal intensity was quantified within a region of interested over the head, as defined by Living Image software. All images represent 2-min exposure time, and the average number of photons·s^-1·cm^-2 per steradian were recorded. The data were analysed using Living Image 4.4.5 software (PerkinElmer, RRID:SCR_014247).

[3] = set-up: method as in Lipsanen et al., 2013; Mitterreiter et al., 2010; details: oral administration or intraperitoneal injection at 50 mg·kg^−1 body weight, two animal studies; ref Lipsanen et al., 2013; Mitterreiter et al., 2010; cited from earlier work

CC(C)COCC(CN(Cc1ccccc1)c1ccccc1)N1CCCC1 (stereo not drawn) [Bepridil, N‐benzyl‐N‐(3‐isobutoxy‐2‐pyrrolidin‐1‐yl‐propyl)aniline]
Crossing of the BBB into brain tissue [1]: can cross the BBB and get into brain tissue
Growth of brain-grafted U87-Luc tumour (bioluminescence) [2]: successfully restrained tumour growth
Penetration of the blood–brain barrier [3]: able to penetrate the blood–brain barrier (BBB) and reach the brain
